In US9296720B2, “Carboxamide-substituted heteroaryl-pyrazoles and the use thereof” (AiCuris GmbH & Co. KG, priority 2011, dated 2016):
Read-outs that look alike come from different tables or passages of the source.

Key:
Assay type in all cases: cell-based
HIV-1NL4-3 K103N-Y181C = test: Luminescence reduction assay, MT4 cells infected with HIV-1NL4-3 luciferase reporter virus, RT mutant K103N-Y181C
Summary of the method: (§1)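 MT4 cells pellet-infected 2 h at 37° C with HIV-1NL4-3 reporter virus (lu164 replacing nef; wild type or site-directed RT mutants), washed, then incubated with compound dilutions (1% DMSO, 2% or 10% FCS) for 5 days. Secreted luciferase read with coelenterazine buffer; EC50 = concentration halving RLU versus untreated infected cells.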

HIV-1LAI Wild Type = test: AlamarBlue viability assay, HIV-1LAI-infected MT4 cells; settings: 10% FCS
Summary of the method: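 MT4 cells infected with HIV-1LAI (MOI 0.01, supernatant infection) cultured 5 days at 37 °C with compounds in RPMI with 2% or 10% FCS, 1% DMSO final. AlamarBlue fluorescence after 3 h; EC50 as 50% protection relative to uninfected cells, CC50 from high-concentration cytotoxicity.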

HIV-1NL4-3 Wild Type = test: Luminescence reduction assay, MT4 cells infected with HIV-1NL4-3 luciferase reporter virus, wild type; settings: 2% FCS
Summary of the method: as §1

[1] = Human immunodeficiency virus 1, MT4, read-out: EC50 (μM) MT4 Cells HIV-1NL4-3 K103N-Y181C 2% FCS, MT4 cells, HIV-1NL4-3 K103N-Y181C, 2% FCS
[2] = Human immunodeficiency virus 1, MT4, MT4 cells
[3] = read-out: EC50 (μM) MT4 Cells HIV-1NL4-3 K103N-Y181C 2% FCS, MT4 cells, HIV-1NL4-3 K103N-Y181C, 2% FCS

SMILES | EC50 (HIV-1NL4-3 K103N-Y181C; [1]) | EC50 (HIV-1LAI Wild Type; [2]) | EC50 (HIV-1NL4-3 Wild Type; [2]) | EC50 (HIV-1NL4-3 K103N-Y181C; [3]) | EC50 (HIV-1LAI Wild Type; MT4 cells) | EC50 (HIV-1NL4-3 Wild Type; MT4 cells)
COc1cc(OC(F)(F)F)cc(-c2cc(C(=O)N3CCNC(=O)C3)nn2-c2cccnc2)c1 [Example 85, 4-({5-[3-Methoxy-5-(trifluoromethoxy)phenyl]-1-(pyridin-3-yl)-1H-pyrazol-3-yl}carbonyl)piperazin-2-one] | 0.123 µM | 0.302 µM | 0.05 µM |  |  | 
O=C1CN(C(=O)c2cc(-c3cc(F)cc(OC(F)F)c3)n(-c3cccnc3)n2)CCN1 [Example 67] | 0.721 µM | 0.641 µM | 0.051 µM |  |  | 
COc1cc(OC(F)(F)F)cc(-c2cc(C(=O)N3CNC(=O)C3)nn2-c2ccnc(Cl)c2)c1 [Example 86, 1-({1-(2-Chloropyridin-4-yl)-5-[3-methoxy-5-(trifluoromethoxy)phenyl]-1H-pyrazol-3-yl}carbonyl)imidazolidin-4-one] | 0.011 µM | 0.065 µM | 0.014 µM |  |  | 
O=C1CN(C(=O)c2cc(-c3cc(Br)cc(OC(F)(F)F)c3)n(-c3cccc(Cl)n3)n2)CN1 [Example 27, 1-({5-[3-Bromo-5-(trifluoromethoxy)phenyl]-(6-chloropyridin-2-yl)-1H-pyrazol-3-yl}carbonyl)imidazolidin-4-one] | 0.114 µM | > 3.3 µM | 0.098 µM |  |  | 
O=C(c1cc(-c2cc(Cl)cc(OC(F)(F)F)c2)n(-c2ccc[n+](O)c2)n1)N1CCS(=O)(=O)C1 [Example 80, {5-[3-Chloro-5-(trifluoromethoxy)phenyl]-1-(1-oxidopyridin-3-yl)-1H-pyrazol-3-yl}(1,1-dioxido-1,3-thiazolidin-3-yl)methanone] | 0.075 µM | 2.79 µM | 0.164 µM |  |  | 
O=C1CN(C(=O)c2cc(-c3cc(F)cc(Cl)c3)n(-c3ccnc(C(F)(F)F)c3)n2)CCN1 [Example 17] | > 3.3 µM | 3.67 µM | 0.248 µM |  |  | 
O=C(c1cc(-c2cc(Br)cc(OC(F)(F)F)c2)n(-c2ccnc(C(F)(F)F)c2)n1)N1CCSC1 [Example 117, {5-[3-Bromo-5-(trifluoromethoxy)phenyl]-1-[2-(trifluoromethyl)pyridin-4-yl]-1H-pyrazol-3-yl}(1,3-thiazolidin-3-yl)methanone] | ≥ 3.3 µM | > 3.3 µM | 1.28 µM |  |  | 
O=C1CN(C(=O)c2cc(-c3ccnc(Cl)c3)n(-c3cccc(Cl)c3)n2)CN1 [Example 114, 1-{[1-(3-Chlorophenyl)-5-(2-chloropyridin-4-yl)-1H-pyrazol-3-yl]carbonyl}imidazolidin-4-one] | 0.171 µM | 0.063 µM | 0.007 µM |  |  | 
O=C(c1cc(-c2cc(Br)cc(OC(F)(F)F)c2)n(-c2ccnc(C(F)(F)F)c2)n1)N1CC[S+]([O-])C1 (stereo not drawn) [Example 51, {5-[3-Bromo-5-(trifluoromethoxy)phenyl]-1-[2-(trifluoromethyl)pyridin-4-yl]-1H-pyrazol-3-yl}(1-oxido-1,3-thiazolidin-3-yl)methanone] | 1.05 µM | 1.93 µM | 0.249 µM |  |  | 
O=C1CN(C(=O)c2cc(-c3cc(F)cc(Cl)c3)n(-c3ccc(Cl)nc3)n2)CCN1 [Example 8, 4-{[5-(3-Chloro-5-fluorophenyl)-1-(6-chloropyridin-3-yl)-1H-pyrazol-3-yl]carbonyl}piperazin-2-one] | 0.29 µM | 0.205 µM | 0.06 µM |  |  | 
O=C(c1cc(-c2cc(Br)cc(OC(F)(F)F)c2)n(-c2ccc(Cl)nc2)n1)N1CCS(=O)(=O)C1 [Example 38, {5-[3-Bromo-5-(trifluoromethoxy)phenyl]-1-(6-chloropyridin-3-yl)-1H-pyrazol-3-yl}(1,1-dioxido-1,3-thiazolidin-3-yl)methanone] | 0.007 µM | 1.22 µM | 0.023 µM |  |  | 
O=C1CN(C(=O)c2cc(-c3cc(Br)cc(OC(F)(F)F)c3)n(-c3ccc(F)nc3)n2)CN1 [Example 39, 1-({5-[3-Bromo-5-(trifluoromethoxy)phenyl]-1-(6-fluoropyridin-3-yl)-1H-pyrazol-3-yl}carbonyl)imidazolidin-4-one] | 0.007 µM | 0.062 µM | 0.009 µM |  |  | 
O=C(c1cc(-c2cc(F)cc(OCC(F)(F)F)c2)n(-c2cccnc2)n1)N1CCSC1 [Example 72, {5-[3-Fluoro-5-(2,2,2-trifluoroethoxy)phenyl]-1-(pyridin-3-yl)-1H-pyrazol-3-yl}(1,3-thiazolidin-3-yl)methanone] | > 3.3 µM | 0.585 µM | 0.038 µM |  |  | 
COc1cc(-n2nc(C(=O)N3CNC(=O)C3)cc2-c2cc(Br)cc(OC(F)(F)F)c2)ccn1 [Example 55, 1-({5-[3-Bromo-5-(trifluoromethoxy)phenyl]-1-(2-methoxypyridin-4-yl)-1H-pyrazol-3-yl}carbonyl)imidazolidin-4-one] | 0.01 µM | 0.104 µM | 0.003 µM |  |  | 
O=C1CN(C(=O)c2cc(-c3cc(Br)cc(OC(F)(F)F)c3)n(-c3cncc(F)c3)n2)CCN1 [Example 45, 4-({5-[3-Bromo-5-(trifluoromethoxy)phenyl]-1-(5-fluoropyridin-3-yl)-1H-pyrazol-3-yl}carbonyl)piperazin-2-one] | 0.232 µM | 0.55 µM | 0.095 µM |  |  | 
O=C1CN(C(=O)c2cc(-c3cc(F)cc(Cl)c3)n(-c3ccnc(Cl)c3)n2)CN1 [Example 14, 1-{[5-(3-Chloro-5-fluorophenyl)-1-(2-chloropyridin-4-yl)-1H-pyrazol-3-yl]carbonyl}imidazolidin-4-one] | 0.067 µM | 0.096 µM | 0.005 µM |  |  | 
O=C1CN(C(=O)c2cc(-c3cc(Br)cc(OC(F)F)c3)n(-c3cccnc3)n2)CN1 [Example 56, 1-({5-[3-Bromo-5-(difluoromethoxy)phenyl]-1-(pyridin-3-yl)-1H-pyrazol-3-yl}carbonyl)imidazolidin-4-one] | 0.005 µM | 0.011 µM | 0.002 µM |  |  | 
O=C1CN(C(=O)c2cc(-c3cc(F)cc(Cl)c3)n(-c3cccnc3)n2)CN1 [Example 3, 1-{[5-(3-Chloro-5-fluorophenyl)-1-(pyridin-3-yl)-1H I-pyrazol-3-yl]carbonyl}imidazolidin-4-one] | 0.067 µM | 0.028 µM | 0.006 µM |  |  | 
O=C(c1cc(-c2cc(F)cc(OC(F)(F)F)c2)n(-c2cccnc2)n1)N1CC[S+]([O-])C1 (racemic) [Example 60-2, {5-[3-Fluoro-5-(trifluoromethoxy)phenyl]-1-(pyridin-3-yl)-1H-pyrazol-3-yl}(1-oxido-1,3-thiazolidin-3-yl)methanone] |  |  |  | 0.446 µM | 0.797 µM | 0.084 µM
O=C1CN(C(=O)c2cc(-c3cc(F)cc(OC(F)F)c3)n(-c3cccnc3)n2)CN1 [Example 66, 1-({5-[3-(Difluoromethoxy)-5-fluorophenyl]-1-(pyridin-3-yl)-1H-pyrazol-3-yl}carbonyl)imidazolidin-4-one] | 0.058 µM | 0.083 µM | 0.013 µM |  |  | 
O=C1CN(C(=O)c2cc(-c3cc(Br)cc(OC(F)(F)F)c3)n(-c3cncc(F)c3)n2)CN1 [Example 44, 1-({5-[3-Bromo-5-(trifluoromethoxy)phenyl]-1-(5-fluoropyridin-3-yl)-1H-pyrazol-3-yl}carbonyl)imidazolidin-4-one] | 0.02 µM | 0.274 µM | 0.018 µM |  |  | 
COc1cncc(-c2cc(C(=O)N3CCNC(=O)C3)nn2-c2ccc(F)c(Cl)c2)c1 [Example 103, 4-{[1-(3-Chloro-4-fluorophenyl)-5-(5-methoxypyridin-3-yl)-1H-pyrazol-3-yl]carbonyl}piperazin-2-one] | 0.375 µM | 0.785 µM | 0.205 µM |  |  | 
O=C(c1cc(-c2cc(F)cc(OC(F)(F)F)c2)n(-c2ccnc(Cl)c2)n1)N1CC[S+]([O-])C1 (stereo not drawn) [Example 64, {1-(2-Chloropyridin-4-yl)-5-[3-fluoro-5-(trifluoromethoxy)phenyl]-1H-pyrazol-3-yl}(1-oxido-1,3-thiazolidin-3-yl)methanone] | 0.771 µM | 1.55 µM | 0.103 µM |  |  | 
O=C1CN(C(=O)c2cc(-c3cc(F)cc(OC(F)(F)F)c3)n(-c3ccnc(Cl)c3)n2)CCN1 [Example 63, 4-({-(2-Chloropyridin-4-yl)-5-[3-fluoro-5-(trifluoromethoxy)phenyl]-1H-pyrazol-3-yl}carbonyl)piperazin-2-one] | 0.892 µM | 2.08 µM | 0.354 µM |  |  | 
O=C(c1cc(-c2cc(Cl)cc(OC(F)(F)F)c2)n(-c2cccnc2)n1)N1CCS(=O)(=O)C1 [Example 79, {5-[3-Chloro-5-(trifluoromethoxy)phenyl]-1-(pyridin-3-yl)-1H-pyrazol-3-yl}(1,1-dioxido-1,3-thiazolidin-3-yl)methanone] | 0.125 µM | 0.244 µM | 0.038 µM |  |  | 
O=C(c1cc(-c2cc(Cl)cc(OC(F)(F)F)c2)n(-c2cccnc2)n1)N1CC[S+]([O-])C1 (racemic) [Example 78, {5-[3-Chloro-5-(trifluoromethoxy)phenyl]-1-(pyridin-3-yl)-1H-pyrazol-3-yl}(1-oxido-1,3-thiazolidin-3-yl)methanone] | 0.277 µM | 0.367 µM | 0.078 µM |  |  | 
O=C(c1cc(-c2cc(F)cc(Cl)c2)n(-c2cccnc2)n1)N1CC[S+]([O-])C1 (racemic) [Example 6, [5-(3-Chloro-5-fluorophenyl)-1-(pyridin-3-yl)-1H-pyrazol-3-yl](1-oxido-1,3-thiazolidin-3-yl)methanone] |  |  |  | 1.36 µM | 0.201 µM | 0.054 µM
